Measurements as given in US7887852B2, “Soft gel capsules containing polymethoxylated flavones and palm oil tocotrienols” (Soft Gel Technologies, Inc., priority 2005, dated 2011).

Assay: Randomized crossover pharmacokinetics study of two Sytrinol formulations, single oral dose, serum tangeretin and nobiletin by LC/MS/MS
Parameters: species or system healthy human subjects
Settings: human, in vivo
Method: The following experiments were undertaken to determine whether citrus polymethoxylated flavones (PMFs) can be detected and quantitated in serum obtained from healthy adults after a single-dose administration of Sytrinol™ capsules (containing 1053 mg of total PMFs) and to compare oral bioavailabilities of two Sytrinol™ formulations in healthy human subjects. This study was conducted as a randomized crossover trial in ten healthy adults, five men and five women, age 23±3 years. […]
Peripheral blood was taken by venipuncture at time 0 (baseline) and times 0.25, 0.5, 1, 2, 4, 6, 8, 24 and 48 hours after ingestion of Sytrinol™ capsules. […] Tangeretin and nobiletin were detected in serum samples and quantitated by LC/MS/MS.
The study was designed to determine whether PMFs can be detected and quantitated in serum obtained from healthy adults after a single dose administration of Sytrinol™ capsules (containing 1053 mg of total PMFs) and to compare oral bioavailabilities of two Sytrinol™ formulations in healthy human subjects. […]
A method of serum extraction and LC/MS/MS analysis of PMF was developed. A Varian 1200 L LC/MS/MS system equipped with ESI and APCI sources was used to identify and quantify tangeretin and nobiletin. […]

AUC0-48h of nobiletin compared with tangeretin: significantly higher
Structure (SMILES): COc1ccc(-c2cc(=O)c3c(OC)c(OC)c(OC)c(OC)c3o2)cc1OC [nobiletin]
